Measured values: article PMC10744269, “Frentizole, a Nontoxic Immunosuppressive Drug, and Its Analogs Display Antitumor Activity via Tubulin Inhibition” (International Journal of Molecular Sciences, 2023)

Assays:
[1] = system: murine macrophage cell line J774; experiment: MTT antiproliferative assay, J774; assay type: cell-based; settings: Mus musculus, 72 h after drug treatment, threshold 10 μM, read-out: IC50 J-774
Method: (§1) The cell proliferation inhibitory activity of frentizole and the synthesized analogs 2–10 against representative human cancer cell lines was assayed using the MTT method (Table 1). […] For those compounds inhibiting cell proliferation by more than 40% with respect to the untreated controls at the threshold concentration, the IC50 values were calculated by measuring the proliferation inhibition in a range of concentrations from 100 to 0.001 μM and adjusting the resulting curves to sigmoidal dose–response curves. The selected cell lines were HeLa (cervix epithelioid carcinoma cells), one of the most frequent kinds of cancer, with good sensitivity against antimitotic agents, and the glioblastoma cell lines U87MG and A172. To study the selectivity of the compounds toward cancer cells versus nontumor cells, the compounds were also evaluated against the nontumorigenic cell line HEK-293 (human embryonic kidney cells) and the murine macrophage cell line J774. Sulfonamide ABT-751, as a representative of the colchicine-site ligands, and the first-line drug for the treatment of glioblastoma multiforme temozolomide (TMZ) were used as reference compounds.
(§2) The effect of the compounds on the proliferation of human tumor cell lines was determined as previously described using the MTT reagent 3-[4,5-dimethylthiazol-2-yl]-2,5-diphenyltetrazolium bromide, MTT Thiazolyl Blue Tetrazolium Bromide, Sigma-Aldrich, St. Louis, MO, USA) dissolved in PBS at 5 mg/mL, according to the manufacturer’s instructions. The cells were incubated in 96-well plates (100 μL/well), in complete DMEM or RPMI 1640 medium (see above), at 37 °C and 5% CO2 atmosphere for 24 h to allow for cell attachment to the plate at the following concentrations: 30,000 cells/mL (U87MG, A172, J774, and HEK-293 cells) or 15,000 cells/mL (HeLa cells). Then, every compound was added (10 μL/well) to a final concentration of 10 μM. Untreated cells were used as negative controls. The antiproliferative activity of the compounds was measured 72 h after drug exposure using the MTT assay. The IC50 value (the drug concentration required to inhibit 50% of the cell growth in respect the untreated control) was determined for those compounds showing antiproliferative effects in the initial screening at 10 μM. For this purpose, the compounds were used at different concentrations ranging from 10^−10 to […]. Measurements were performed in triplicate and each experiment was repeated three times. The IC50 values were determined using Origin software (OriginLab, Washington, DC, USA).

[2] = system: HeLa (cervix epithelioid carcinoma cells); experiment: MTT antiproliferative assay, HeLa; assay type: cell-based, human; settings: Homo sapiens, HeLa, 72 h after drug treatment, threshold 10 μM
Method: as §1
(§3) The cell lines were from ATTC (Manassas, VA, USA). HeLa (human cervix epithelioid carcinoma), U87 MG (human glioblastoma), A172 (human glioblastoma), and HEK-293 (human embryonic kidney) were grown in Dulbecco’s modified Eagle’s medium (DMEM, Gibco, Waltham, MA, USA), supplemented with 10% (v/v) heat-inactivated fetal bovine serum (HIFBS, Sigma-Aldrich, St. Louis, MO, USA), 2 mM L-glutamine, 100 μg/mL streptomycin, and 100 units/mL penicillin (Gibco, Waltham, MA, USA) at 37 °C in humidified 95% air and 5% CO2. The cells were periodically tested for Mycoplasma infection using MycoAlert kit (Lonza, Norwest, Australia), and only mycoplasma-free cells were employed in the experiments.
as §2

[3] = system: U87 MG (human glioblastoma); experiment: MTT antiproliferative assay, U-87 MG; assay type: cell-based; settings: 72 h after drug treatment, threshold 10 μM
Method: as §1, §3, §2

[4] = system: nontumorigenic cell line HEK-293 (human embryonic kidney cells); experiment: MTT antiproliferative assay, HEK-293; assay type: cell-based; settings: HEK293, 72 h after drug treatment, threshold 10 μM
Method: as §1, §3, §2

[5] = system: A172 (human glioblastoma); experiment: MTT antiproliferative assay, A-172; assay type: cell-based; settings: 72 h after drug treatment, threshold 10 μM
Method: as §1, §3, §2

| Structure (SMILES) | IC50 [1] [µM] | melting point [°C] | IC50 [2] [µM] | IC50 [3] [µM] | IC50 [4] [µM] | IC50 [5] [µM] |
| --- | --- | --- | --- | --- | --- | --- |
| Cc1ccc2nc(NC(=O)Nc3ccccc3)sc2c1 [Compound 6a, 1-(6-Methylbenzo[d]thiazol-2-yl)-3-phenylurea] | 1.97 | 327 to 329 | > 10 | > 10 | > 10 | > 10 |
| Cc1ccc2nc(NC(=O)Cc3ccccc3)sc2c1 [Compound 4a, N-(6-methylbenzo[d]thiazol-2-yl)-2-phenylacetamide] | > 10 | 190 to 191 | > 10 | > 10 | > 10 | > 10 |
| Cc1cc(Br)c2nc(NC(=O)OCc3ccccc3)sc2c1 [Compound 10b] | > 10 | – | > 10 | > 10 | > 10 | > 10 |
| Cc1cc2nc(NC(=O)c3ccccc3)sc2cc1C [Compound 3c, N-(5,6-dimethylbenzo[d]thiazol-2-yl)benzamide] | 7.73 | 210 | > 10 | > 10 | 5.68 | > 10 |
| CCNC(=O)Nc1nc2ccc(OC)cc2s1 [Compound 5e, 1-Ethyl-3-(6-methoxybenzo[d]thiazol-2-yl)urea] | > 10 | – | > 10 | > 10 | > 10 | > 10 |
| CCNC(=O)Nc1nc2ccc(C)cc2s1 [Compound 5a, 1-Ethyl-3-(6-methylbenzo[d]thiazol-2-yl)urea] | > 10 | 312 to 313 | > 10 | > 10 | > 10 | > 10 |
| Cc1ccc2nc(NC(=O)OCc3ccccc3)sc2c1 [Compound 10a, Benzyl (6-methylbenzo[d]thiazol-2-yl)carbamate] | – | 254 to 255 | > 10 | > 10 | > 10 | > 10 |
| Cc1ccc2nc(NC(=O)Oc3ccccc3)sc2c1 [Compound 9a, Phenyl (6-methylbenzo[d]thiazol-2-yl)carbamate] | > 10 | 251 to 253 | > 10 | > 10 | > 10 | > 10 |
| Cc1cc(Br)c2nc(NC(=O)NCc3ccccc3)sc2c1 [Compound 7b, 1-Benzyl-3-(4-bromo-6-methylbenzo[d]thiazol-2-yl)urea] | > 10 | – | > 10 | > 10 | > 10 | > 10 |
| Cc1ccc2nc(NC(=O)NCc3ccccc3)sc2c1 [Compound 7a, 1-Benzyl-3-(6-methylbenzo[d]thiazol-2-yl)urea] | > 10 | 283.4 to 285.7 | > 10 | > 10 | > 10 | > 10 |
| Cc1cc(Br)c2c(c1)SC(NC(=O)Oc1ccccc1)N2C(=O)Oc1ccccc1 (stereo not drawn) [Compound 9b, Phenyl (4-bromo-6-methyl-N-phenoxycarbonylbenzo[d]thiazol-2-yl)carbamate] | – | 100 | – | – | – | – |
| CCNC(=O)Nc1nc2cc(C)c(C)cc2s1 [Compound 5c, 1-(5,6-Dimethylbenzo[d]thiazol-2-yl)-3-ethylurea] | > 10 | – | > 10 | > 10 | > 10 | > 10 |
| COc1ccc2nc(NC(=O)c3ccccc3)sc2c1 [Compound 3e, N-(6-methoxybenzo[d]thiazol-2-yl)benzamide] | > 10 | – | > 10 | > 10 | > 10 | > 10 |
| COc1ccc2nc(N(C)C(=O)Nc3ccccc3)sc2c1 [Compound 6ea, 1-(6-Methoxybenzo[d]thiazol-2-yl)-1-methyl-3-phenylurea] | > 10 | 189 | > 10 | > 10 | > 10 | > 10 |
| Cc1cc(Br)c2nc(NC(=O)Nc3ccccc3)sc2c1 [Compound 6b] | > 10 | – | > 10 | > 10 | > 10 | > 10 |
